Experimental data published in US7009053B2, “Quinoline derivatives as caspase-3 inhibitor, preparation for producing the same and pharmaceutical composition comprising the same” (Yungjin Pharmaceuticals Co., Ltd., priority 2002, dated 2006).

Molecular target: T1, human recombinant caspase-3 enzyme (Homo sapiens, UniProt P42574)
T1 construct: each cDNA encoding p12 and p17 subunits of caspase-3 was PCR-amplified respectively and subcloned into a pET3-a expression vector; made in house; host or cells: E. coli BL21 (DE3), pET3-a vector
T1 sequence (P42574 29-175 limits assumed): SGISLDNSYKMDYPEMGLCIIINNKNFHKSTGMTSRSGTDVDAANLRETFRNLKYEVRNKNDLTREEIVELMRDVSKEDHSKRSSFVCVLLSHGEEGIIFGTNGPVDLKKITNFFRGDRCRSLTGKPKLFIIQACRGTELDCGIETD
T1 sequence (P42574 176-277 limits assumed): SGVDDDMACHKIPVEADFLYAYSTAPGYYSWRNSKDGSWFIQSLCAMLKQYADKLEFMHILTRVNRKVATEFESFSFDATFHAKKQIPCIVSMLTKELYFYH
Assay: Enzyme assay of caspase-3 inhibition (fluorogenic Ac-DEVD-AFC substrate)
Assay type: biochemical
Conditions: for IC50: caspase-3, Table 1, tested at 2, 20 or 200 uM, read-out: IC50; for inhibitory activity against caspase-3 (in words): compared to the reference compound
Experimental: The active form of human recombinant caspase-3 enzyme was prepared from Escherichia coli (E.coli) heterologous expression system as described previously (Rotonda J. et al., Nat Struct Biol 3(7): 617–25, 1996). Briefly, each cDNA encoding p12 and p17 subunits of caspase-3 was PCR-amplified respectively and subcloned into a pET3-a expression vector (Novagen), which was followed by transfection into E. coli strain BL21 (DE3). The bacterial cultures (0.5 liters for each transfectant) were grown at 37° C. until logarithmic phase of cell growth and isopropyl-1-thio-β-D-galactopyranoside (IPTC) (Pharmacia) was then added to a final concentration of 0.5 mM. After 3 hr of incubation, the bacteria were pelleted and lysed in a lysis buffer (20 mM Tris hydrochloride pH 8.0, 1 mM EDTA, 2 mM dithiothreitol (DTT), 100 mM NaCl, 200 ug/ml of lysozyme) through sonication. After centrifugation, the pellets from each transfectants were dissolved in 6 M urea and were mixed and rapidly diluted 50 fold in 100 mM HEPES/KOH (pH 7.5), 10% sucrose, 0.1% CHAPS, 0.5 M NaCl, 10 mM DTT. The concentration of protein was determined with the Bradford method (Bio-Rad), with bovine serum albumin as the standard. To verify whether expected size of proteins were obtained, the cell lysates from each cDNA transfectants were analyzed on 14% SDS PAGE and visualized with Coomassie blue staining.
200 ul of the following assay solution was contained in each well of 96-well plate: 20 mM HEPES/KOH (pH 7.5), 10% sucrose, 10 mM DTT, 0.2 mM EDTA, 0.1% CHAPS, 200 ng of enzymes, and 2.5 uM of the substrate. The fluorogenic substrate […]-Asp-Glu-Val-Asp-7-amino-4-trifluoromethylcoumarin (Ac-DEVD-AFC) was purchased from Sigma (St Louis, Mo.) and dissolved in DMSO as a 2.5 mM stock solution and kept at −20° C. before use.
After 1 hr incubation at 37° C., the release of AFC (7-amino-4-trifluoromethyl-coumarin) was monitored in a fluorometric plate reader (Victor 1420). The excitation and emission wavelengths were 400 nm and 510 nm, respectively. The inhibitory effects of compounds on enzyme activities were determined with 2, 20 or 200 uM concentrations of the test compound run in triplicate tubes, and isotherms from three assays were calculated by computerized nonlinear regression analysis (GraphPad Prism Program, San Diego, Calif.) to yield IC50 values.

SMILES	%-Inhibition (caspase-3 activity, at 20 uM) [%]	IC50 [µM]	inhibition at 20 µM (caspase-3 activity, at 20 uM) [%]	inhibitory activity against caspase-3 (in words)
CN1C(=O)C(=O)c2cc(S(=O)(=O)N3CCC[C@H]3COc3ccccc3)ccc21 [(S)-1-methyl-5-{1-[2-(phenoxymethyl)pyrrolidinyl]sulfonyl} isatin, reference compound]	76.8	–	–	–
CCOC(=O)c1cnc2c(N)cccc2c1NC(CC)COC (stereo not drawn) [Example 25, 8-Amino-4-(1-methoxymethyl-propylamino)-quinoline-3-carboxylic acid ethyl ester]	–	16.5	88.8	–
CCOC(=O)c1cnc2c(N)cccc2c1NCc1cccc(F)c1 [Example 30, 8-Amino-4-(3-fluoro-benzylamino)-quinoline-3-carboxylic acid ethyl ester]	–	19.1	76.9	–
CCCNc1c(C(=O)OCC)cnc2c(N)cccc12 [Example 45, 8-Amino-4-propylamino-quinoline-3-carboxylic acid ethyl ester]	–	16	85	–
CCOC(=O)c1cnc2c(N)cccc2c1NCCOC [Example 35, 8-Amino-4-(2-methoxy-ethylamino)-quinoline-3-carboxylic acid ethyl ester]	–	13.6	91.5	superior activity
CCOC(=O)c1cnc2c(N)cccc2c1NCc1ccccc1OC [Example 32, 8-Amino-4-(2-methoxy-benzylamino)-quinoline-3-carboxylic acid ethyl ester]	–	16.9	82.9	–
CCOC(=O)c1cnc2c(N)cccc2c1NCc1cccc2ccccc12 [Example 19, 8-Amino-4-[(naphthalen-1-ylmethyl)-amino]-quinoline-3-carboxylic acid ethyl ester]	–	14.9	84.9	–
CCOC(=O)c1cnc2c(N)cccc2c1NCc1ccccc1Cl [Example 41, 8-Amino-4-(2-chloro-benzylamino)-quinoline-3-carboxylic acid ethyl ester]	–	17.8	78.4	–
CCOC(=O)c1cnc2c(N)cccc2c1NCc1cccc(OC)c1 [Example 34, 8-Amino-4-(3-methoxy-benzylamino)-quinoline-3-carboxylic acid ethyl ester]	–	16	83.9	–
CCCOC(=O)c1cnc2c(N)cccc2c1NCc1ccccn1 [Example 60, 8-Amino-4-[(pyridine-2-ylmethyl)-amino]-quinoline-3-carboxylic acid propyl ester]	–	–	76.8	–
CCOC(=O)c1cnc2c(N)cccc2c1NCCCc1ccccc1 [Example 39, 8-Amino-4-(3-phenyl-propylamino)-quinoline-3-carboxylic acid ethyl ester]	–	16.4	78.8	–
CCOC(=O)c1cnc2c(N)cccc2c1NCc1ccc(C)cc1 [Example 37, 8-Amino-4-(4-methyl-benzylamino)-quinoline-3-carboxylic acid ethyl ester]	–	15.3	82.1	–
CCOC(=O)c1cnc2c(N)cccc2c1NCc1ccccc1F [Example 29, 8-Amino-4-(2-fluoro-benzylamino)-quinoline-3-carboxylic acid ethyl ester]	–	18.8	78.8	–
CCOC(=O)c1cnc2c(N)cccc2c1NCc1ccc(Cl)cc1 [Example 42, 8-Amino-4-(4-chloro-benzylamino)-quinoline-3-carboxylic acid ethyl ester]	–	17	82.9	–
CCOC(=O)c1cnc2c(N)cccc2c1NCc1cccc(OC)c1OC [Example 44, 8-Amino-4-(2,3-dimethoxy-benzylamino)-quinoline-3-carboxylic acid ethyl ester]	–	18.1	72.1	–
CCOC(=O)c1cnc2c(N)cccc2c1NC1CCCCC1 [Example 18, 8-Amino-4-cyclohexylamino-quinoline-3-carboxylic acid ethyl ester]	–	14.1	84.7	–
CCOC(=O)c1cnc2c(N)cccc2c1NCCCOC(C)C [Example 31, 8-Amino-4-(3-isopropoxy-propylamino)-quinoline-3-carboxylic acid ethyl ester]	–	13.5	92.5	superior activity
CCOC(=O)c1cnc2c(N)cccc2c1NCc1ccccn1 [Example 20, 8-Amino-4-[(pyridin-2-ylmethyl)-amino]-quinoline-3-carboxylic acid ethyl ester]	–	13.2	90.1	superior activity
CCOC(=O)c1cnc2c(N)cccc2c1NC(C)C [Example 28, 8-Amino-4-isopropylamino-quinoline-3-carboxylic acid ethyl ester]	–	17.6	85.2	–
CCOC(=O)c1cnc2c(N)cccc2c1NCc1ccccc1 [Example 17, 8-Amino-4-benzylamino-quinoline-3-carboxylic acid ethyl ester]	–	14.4	81.7	–
CCCCNc1c(C(=O)OCC)cnc2c(N)cccc12 [Example 26, 8-Amino-4-butylamino-quinoline-3-carboxylic acid ethyl ester]	–	15.4	88.9	–
CCOC(=O)c1cnc2c(N)cccc2c1NCC(C)C [Example 27, 8-Amino-4-isobutylamino-quinoline-3-carboxylic acid ethyl ester]	–	15.9	87.8	–
CCOC(=O)c1cnc2c(N)cccc2c1NCc1ccc2c(c1)OCO2 [Example 23, 8-Amino-4-[(benzo[1,3]dioxol-5-ylmethyl)-amino]-quinoline-3-carboxylic acid ethyl ester]	–	14.3	86	–
CCOC(=O)c1cnc2c(N)cccc2c1NCc1cc(OC)cc(OC)c1 [Example 47, 8-Amino-4-(3,5-dimethoxy-benzylamino)-quinoline-3-carboxylic acid ethyl ester]	–	21.2	69.3	–
CCOC(=O)c1cnc2c(N)cccc2c1NCc1cccs1 [Example 21, 8-Amino-4-[(thiophen-2-ylmethyl)-amino]-quinoline-3-carboxylic acid ethyl ester]	–	19.2	78	–
CCOC(=O)c1cnc2c(N)cccc2c1NCCCCc1ccccc1 [Example 40, 8-Amino-4-(4-phenyl-butylamino)-quinoline-3-carboxylic acid ethyl ester]	–	16.4	81.7	–
CCOC(=O)c1cnc2c(N)cccc2c1NCc1ccc(Cl)cc1Cl [Example 43, 8-Amino-4-(2,4-dichloro-benzylamino)-quinoline-3-carboxylic acid ethyl ester]	–	27	54.7	–
CCOC(=O)c1cnc2c(N)cccc2c1NCCc1ccccc1 [Example 38, 8-Amino-4-phenethylamino-quinoline-3-carboxylic acid ethyl ester]	–	16.6	77.2	–
CC(C)OC(=O)c1cnc2c(N)cccc2c1NCc1ccccn1 [Example 61, 8-Amino-4-[(pyridin-2-ylmethyl)-amino]-quinoline-3-carboxylic acid isopropyl ester]	–	–	81.4	–
CCOC(=O)c1cnc2c(N)cccc2c1NCc1ccc(OC)cc1 [Example 33, 8-Amino-4-(4-methoxy-benzylamino)-quinoline-3-carboxylic acid ethyl ester]	–	15.8	86.5	–
